In PMC11274128, “Modification and Synergistic Studies of a Novel Frog Antimicrobial Peptide against Pseudomonas aeruginosa Biofilms” (Antibiotics, 2024):
Converted amounts (≈) assume the structure as drawn. Like-named read-outs stand apart in the source and are kept apart here. Values belong to the compound of their own block, whether it stands above or below them. Bridge positions count the residues as written; N and C are the ends. Peptide text beside a SMILES is read from it.

Experiments:
MRSA NCTC 12493 biofilm = type: cell-based, methicillin-resistant Staphylococcus aureus
Excerpt: (§1) The minimum bactericidal concentration (MBC) is defined as the lowest antibiotic concentration that kills 99.9% of the inoculum. The minimum biofilm inhibitory concentration (MBIC) is the lowest concentration that inhibits at least 90% of the formation of biofilm. The minimum biofilm eradication concentration (MBEC) is the minimum concentration that can eradicate at least 99% of the biofilm. In addition to the eight microorganisms described previously, this experiment was also applied to P. aeruginosa (ATCC 27853, ATCC BAA-2108, P. aeruginosa 01, P. aeruginosa 14).

P. aeruginosa 14 biofilm = type: cell-based, Pseudomonas aeruginosa
Excerpt: as §1

P. aeruginosa 01 biofilm = type: cell-based, Pseudomonas aeruginosa
Excerpt: as §1

[1] = system: P. aeruginosa ATCC 27853 biofilm; type: cell-based, Pseudomonas aeruginosa
Excerpt: as §1

[2] = system: P. aeruginosa ATCC BAA-2108 biofilm; type: cell-based, Pseudomonas aeruginosa
Excerpt: as §1

[3] = system: P. aeruginosa ATCC CRM 9027 biofilm; type: cell-based, Pseudomonas aeruginosa
Excerpt: as §1

MRSA (NCTC 12493) = test: microbe, parasite or virus in culture; type: cell-based, methicillin-resistant Staphylococcus aureus
Excerpt: (§2) The minimum inhibitory concentration (MIC) is the minimum concentration of an antimicrobial agent that prevents the visible growth of a bacterium or bacteria. The MIC is an important piece of data for research on new antimicrobial agents and helps in the effective selection of antibiotics to improve the success of treatment. The minimum bactericidal concentration (MBC) is defined as the lowest antibiotic concentration that kills 99.9% of the inoculum. This study mainly contained eight different microorganisms, which were Staphylococcus aureus (ATCC 6538), methicillin-resistant Staphylococcus aureus (NCTC 12493), Enterococcus faecalis (NCTC 12697), Escherichia coli (ATCC 8739), Klebsiella pneumoniae (ATCC 43816), Pseudomonas aeruginosa (ATCC CRM 9027), Acinetobacter baumannii (BAA 747), and Candida albicans (ATCC 10231). The bacteria were incubated in the compatible medium at 37 °C overnight.

E. coli (ATCC 8739) = test: microbe, parasite or virus in culture; type: cell-based, Escherichia coli
Excerpt: as §2

[4] = system: S. aureus ATCC 6538 biofilm; type: cell-based, Staphylococcus aureus
Excerpt: as §1

A. baumannii (BAA 747) = test: microbe, parasite or virus in culture; type: cell-based, Acinetobacter baumannii
Excerpt: as §2

S. aureus (ATCC 6538) = test: microbe, parasite or virus in culture; type: cell-based, Staphylococcus aureus
Excerpt: as §2

[5] = system: K. pneumoniae ATCC 43816 biofilm; type: cell-based, Klebsiella pneumoniae
Excerpt: as §1

[6] = system: P. aeruginosa (ATCC CRM 9027); test: microbe, parasite or virus in culture; type: cell-based, Pseudomonas aeruginosa
Excerpt: as §2

[7] = system: E. faecalis NCTC 12697 biofilm; type: cell-based, Enterococcus faecalis
Excerpt: as §1

[8] = system: A. baumannii BAA 747 biofilm; type: cell-based, Acinetobacter baumannii
Excerpt: as §1

E. faecalis (NCTC 12697) = test: microbe, parasite or virus in culture; type: cell-based, Enterococcus faecalis; conditions: Enterococcus faecalis, NCTC12697
Excerpt: as §2

[9] = system: K. pneumoniae (ATCC 43816); test: microbe, parasite or virus in culture; type: cell-based, Klebsiella pneumoniae
Excerpt: as §2

C. albicans (ATCC 10231) = type: cell-based, Candida albicans; conditions: yeast C. albicans ATCC 10231
Excerpt: as §2

horse red blood cells = horse red blood cells in PBS, 37 °C, 2 h, absorbance 570 nm; positive control 0.1% Triton
Yeast = test: Geometric mean of MICs and TI value; type: cell-based, Candida albicans; conditions: C. albicans ATCC 10231
Description: (§3) The therapeutic potential of antimicrobial agents was valued based on their selectivity toward bacteria in reference to erythrocytes. The TI value was calculated from the results of antibacterial and haemolysis experiments of peptides using the following formula:TI value = HC10 / GMMICs.
(§4) GM was the geometric mean of MICs against all tested bacteria.

G+ Bacteria = test: Geometric mean of MICs and TI value; type: cell-based; conditions: geometric mean of MICs against tested Gram-positive bacteria
Description: as §3, §4

G− Bacteria = test: Geometric mean of MICs and TI value; type: cell-based; conditions: geometric mean of MICs against tested Gram-negative bacteria
Description: as §3, §4

[10] = lowest concentration inhibiting at least 90% of biofilm formation
[11] = minimum concentration eradicating at least 99% of the biofilm
[12] = Acinetobacter baumannii, BAA747
[13] = Staphylococcus aureus, ATCC6538
[14] = Klebsiella pneumoniae, ATCC43816

MIC (MRSA (NCTC 12493); Staphylococcus aureus, planktonic MRSA NCTC 12493, 37 °C, nine repeats of three independent experiments, read-out: MIC): 16 µM (≈ 7.69 µg/mL) | MIC (E. coli (ATCC 8739); Escherichia coli, ATCC8739, planktonic E. coli ATCC 8739, 37 °C, nine repeats of three independent experiments, read-out: MIC): 8 µM (≈ 3.84 µg/mL) | MIC (A. baumannii (BAA 747); Acinetobacter baumannii, BAA747, planktonic A. baumannii BAA 747, 37 °C, nine repeats of three independent experiments, read-out: MIC): 1 µM (≈ 0.481 µg/mL) | MIC (S. aureus (ATCC 6538); Staphylococcus aureus, ATCC6538, planktonic S. aureus ATCC 6538, 37 °C, nine repeats of three independent experiments, read-out: MIC): 32 µM (≈ 15.4 µg/mL) | MIC ([6]; Pseudomonas aeruginosa, planktonic P. aeruginosa ATCC CRM 9027, 37 °C, nine repeats of three independent experiments, read-out: MIC): 2 µM (≈ 0.961 µg/mL) | MIC (E. faecalis (NCTC 12697); planktonic E. faecalis NCTC 12697, 37 °C, nine repeats of three independent experiments, read-out: MIC): 128 µM (≈ 61.5 µg/mL) | MIC ([9]; Klebsiella pneumoniae, ATCC43816, planktonic K. pneumoniae ATCC 43816, 37 °C, nine repeats of three independent experiments, read-out: MIC): 128 µM (≈ 61.5 µg/mL)
Structure (SMILES): CO/N=C(\C(=O)N[C@@H]1C(=O)N2C(C(=O)[O-])=C(C[N+]3(C)CCCC3)CS[C@H]12)c1csc(N)n1 [Cefepime, reference compound]
MBIC (MRSA NCTC 12493 biofilm; [10]): >128/>128 µM | MBEC (MRSA NCTC 12493 biofilm; [11]): >128/>128 µM | MBIC (P. aeruginosa 14 biofilm; [10]): 8 µM | MBEC (P. aeruginosa 14 biofilm; [11]): > 128 µM | MBIC (P. aeruginosa 01 biofilm; [10]): 4 µM | MBEC (P. aeruginosa 01 biofilm; [11]): > 128 µM | MBIC [1, 10]: 2 µM | MBEC [1, 11]: 4 µM | MBIC [2, 10]: 64 µM | MBEC [2, 11]: > 128 µM | MBIC [3, 10]: >128/>128 µM | MBEC [3, 11]: >128/>128 µM | MBC (MRSA (NCTC 12493); Staphylococcus aureus, planktonic MRSA NCTC 12493, lowest concentration killing 99.9% of inoculum, read-out: MBC): 32 µM (≈ 15.4 µg/mL) | MBC (E. coli (ATCC 8739); Escherichia coli, ATCC8739, planktonic E. coli ATCC 8739, lowest concentration killing 99.9% of inoculum, read-out: MBC): 16 µM (≈ 7.69 µg/mL) | MBIC [4, 10]: 4 µM | MBEC [4, 11]: 8 µM | MBC (A. baumannii (BAA 747); Acinetobacter baumannii, BAA747, planktonic A. baumannii BAA 747, lowest concentration killing 99.9% of inoculum, read-out: MBC): 2 µM (≈ 0.961 µg/mL) | MBC (S. aureus (ATCC 6538); Staphylococcus aureus, ATCC6538, planktonic S. aureus ATCC 6538, lowest concentration killing 99.9% of inoculum, read-out: MBC): 64 µM (≈ 30.8 µg/mL) | MBIC [5, 10]: >128/>128 µM | MBEC [5, 11]: >128/>128 µM | MBC ([6]; Pseudomonas aeruginosa, planktonic P. aeruginosa ATCC CRM 9027, lowest concentration killing 99.9% of inoculum, read-out: MBC): 2 µM (≈ 0.961 µg/mL) | MBIC [7, 10]: >128/>128 µM | MBEC [7, 11]: >128/>128 µM | MBIC [8, 10]: 128/>128 µM | MBEC [8, 11]: 128/>128 µM | MBC (E. faecalis (NCTC 12697); planktonic E. faecalis NCTC 12697, lowest concentration killing 99.9% of inoculum, read-out: MBC): > 128 µM | MBC ([9]; Klebsiella pneumoniae, ATCC43816, planktonic K. pneumoniae ATCC 43816, lowest concentration killing 99.9% of inoculum, read-out: MBC): > 128 µM

Structure (SMILES): CC[C@H](C)[C@H](NC(=O)[C@H](CCCCN)NC(=O)[C@H](CCCCN)NC(=O)CNC(=O)[C@H](C)NC(=O)[C@H](C)NC(=O)[C@H](CC(C)C)NC(=O)[C@@H](NC(=O)[C@H](C)NC(=O)[C@H](CCCNC(=N)N)NC(=O)[C@H](CC(C)C)NC(=O)[C@H](CC(C)C)NC(=O)CN)C(C)C)C(=O)N[C@H](C(=O)N[C@H]1CSSC[C@@H](C(=O)O)NC(=O)[C@H](CCCNC(=N)N)NC(=O)CNC(=O)[C@H](CO)NC(=O)[C@H](CC(C)C)NC(=O)CNC1=O)C(C)C [Peptide 2085-R] (H-GLLRAVLAAGKKIVCGLSGRC-OH; disulfide 15-21)
MIC (C. albicans (ATCC 10231); 37 °C, nine repeats of three independent experiments): 32 µM (≈ 66.7 µg/mL) | MBC (C. albicans (ATCC 10231); lowest concentration killing 99.9% of inoculum): 32 µM (≈ 66.7 µg/mL) | HC10 (horse red blood cells): >256 µM | GM (geometric mean of MICs), Yeast (Yeast): 32.00 µM | MIC (MRSA (NCTC 12493); planktonic MRSA NCTC 12493, 37 °C, nine repeats of three independent experiments, read-out: MIC): 16 µM (≈ 33.3 µg/mL) | MBC (MRSA (NCTC 12493); planktonic MRSA NCTC 12493, lowest concentration killing 99.9% of inoculum, read-out: MBC): 32 µM (≈ 66.7 µg/mL) | MIC (E. coli (ATCC 8739); planktonic E. coli ATCC 8739, 37 °C, nine repeats of three independent experiments): 16 µM (≈ 33.3 µg/mL) | MBC (E. coli (ATCC 8739); planktonic E. coli ATCC 8739, lowest concentration killing 99.9% of inoculum): 16 µM (≈ 33.3 µg/mL) | MIC (A. baumannii (BAA 747); planktonic A. baumannii BAA 747, 37 °C, nine repeats of three independent experiments, read-out: MIC): 32 µM (≈ 66.7 µg/mL) | MBC (A. baumannii (BAA 747); planktonic A. baumannii BAA 747, lowest concentration killing 99.9% of inoculum, read-out: MBC): 64 µM (≈ 133 µg/mL) | MIC (S. aureus (ATCC 6538); planktonic S. aureus ATCC 6538, 37 °C, nine repeats of three independent experiments): 16 µM (≈ 33.3 µg/mL) | MBC (S. aureus (ATCC 6538); planktonic S. aureus ATCC 6538, lowest concentration killing 99.9% of inoculum): 16 µM (≈ 33.3 µg/mL) | GM (geometric mean of MICs), G+ Bacteria (G+ Bacteria): 25.40 µM | GM (geometric mean of MICs), G− Bacteria (G− Bacteria): 32.00 µM | MIC ([6]; planktonic P. aeruginosa ATCC CRM 9027, 37 °C, nine repeats of three independent experiments): 64 µM (≈ 133 µg/mL) | MBC ([6]; planktonic P. aeruginosa ATCC CRM 9027, lowest concentration killing 99.9% of inoculum): 64 µM (≈ 133 µg/mL) | MIC ([9]; planktonic K. pneumoniae ATCC 43816, 37 °C, nine repeats of three independent experiments, read-out: MIC): 32 µM (≈ 66.7 µg/mL) | MBC ([9]; planktonic K. pneumoniae ATCC 43816, lowest concentration killing 99.9% of inoculum, read-out: MBC): 64 µM (≈ 133 µg/mL)

Structure (SMILES): CN[C@H](CC(C)C)C(=O)N[C@H]1C(=O)N[C@@H](CC(N)=O)C(=O)N[C@H]2C(=O)N[C@H]3C(=O)N[C@H](C(=O)N[C@H](C(=O)O)c4cc(O)cc(O)c4-c4cc3ccc4O)[C@H](O)c3ccc(c(Cl)c3)Oc3cc2cc(c3O[C@@H]2O[C@H](CO)[C@@H](O)[C@H](O)[C@H]2O[C@H]2C[C@](C)(N)[C@H](O)[C@H](C)O2)Oc2ccc(cc2Cl)[C@H]1O [Vancomycin, reference compound]
MBC (MRSA (NCTC 12493); Staphylococcus aureus): 8 µM (≈ 11.6 µg/mL) | MIC (MRSA (NCTC 12493); Staphylococcus aureus): 4 µM (≈ 5.8 µg/mL) | MBC (E. coli (ATCC 8739); Escherichia coli, ATCC8739): > 128 µM | MIC (E. coli (ATCC 8739); Escherichia coli, ATCC8739): 32 µM (≈ 46.4 µg/mL) | MBC (A. baumannii (BAA 747); [12]): > 128 µM | MIC (A. baumannii (BAA 747); [12]): > 128 µM | MBC (S. aureus (ATCC 6538); [13]): 64 µM (≈ 92.8 µg/mL) | MIC (S. aureus (ATCC 6538); [13]): 8 µM (≈ 11.6 µg/mL) | MBC ([6]; Pseudomonas aeruginosa): > 128 µM | MIC ([6]; Pseudomonas aeruginosa): > 128 µM | MBC (E. faecalis (NCTC 12697)): > 128 µM | MIC (E. faecalis (NCTC 12697)): 32 µM (≈ 46.4 µg/mL) | MBC [9, 14]: > 128 µM | MIC [9, 14]: > 128 µM
